Assay results published in US4308256A, “Method of inducing analgesia” (American Home Products Corporation, priority 1980, dated 1981).
Bridge positions count the residues as written; N and C are the ends. Square brackets hold non-standard residues; d marks the D form. Peptide text beside a SMILES is read from it. * marks the point of attachment. Ileψ(thiazoline)Cys = CC[C@H](C)[C@H](N)C1=N[C@H](C(=O)*)CS1; dOrn = NCCC[C@@H](N)C(=O)O

Key:
aminopeptidase = settings: cited from earlier work
rats = settings: fully reversible by naloxone; cited from earlier work
male Charles River rats = test: D'Amour-Smith rat tail-flick procedure (radiant heat, 8 second cut-off), intraventricular injection; assay type: in vivo; settings: for Tail-flick latency: leucine-enkephalin intraventricular
Description: Intraventricular cannulae, made of 27-gauge stainless steel tubing, are implanted in 300-400 g. male Charles River rats under pentobarbital anesthesia. After a recovery period of at least one week, the rats are restrained in a wire-mesh cylindrical chamber so that the tip of the tail can be positioned at the focal point of a radiant heat source. After an acclimatistation period of 5 minutes, the lamp is turned on and an electric clock activated. Movement of the tip of the tail exposes a photocell to the lamp, which turns off the thermal stimulus and stops the clock. If a rat fails to move its tail within 8 seconds, the heat is automatically turned off to prevent blistering. The intensity of the lamp is adjusted in each case to produce at least three baseline tail-flick latencies of 2.5-4.5 seconds. Tests are initially made every 2 minutes, then every 5 minutes and finally every 15 minutes.
Initially, using the above outlined procedure, the effects of intraventricularly administered leucine-enkephalin are tested in rats according to the above procedure.
The rat tail flick procedure is repeated, first by the simultaneous intraventricular injection of both leucine-enkephalin and bestatin and then by the initial injection of bestatin followed one hour later by the injection of leucine-enkephalin.
The above procedure is repeated again, however, the bestatin is administered first and then one hour later the leucine-enkephalin is administered.
The effects of bestatin alone are tested in rats according to the rat tail flick procedure.

[1] = exogenously (intraventricularly) administered leucine-enkephalin alone, rats

## CC[C@H](C)[C@H](N)C1=N[C@H](C(=O)N[C@@H](CC(C)C)C(=O)N[C@H](CCC(=O)O)C(=O)N[C@H](C(=O)N[C@H]2CCCCNC(=O)[C@H](CC(N)=O)NC(=O)[C@@H](CC(=O)O)NC(=O)[C@H](Cc3cnc[nH]3)NC(=O)[C@@H](Cc3ccccc3)NC(=O)[C@H]([C@@H](C)CC)NC(=O)[C@@H](CCCN)NC2=O)[C@@H](C)CC)CS1 [bacitracin] ({Ileψ(thiazoline)Cys}-L[dE]IK[dOrn]I[dF]H[dD]N; lactam 4-C)
aminopeptidase
  Inhibition of "aminopeptidase"-catalyzed breakdown of enkephalins: effective inhibitors

## CC(C)C[C@H](NC(=O)[C@H](Cc1ccccc1)NC(=O)CNC(=O)CNC(=O)[C@@H](N)Cc1ccc(O)cc1)C(=O)O [leucine-enkephalin, H-Tyr-Gly-Gly-Phe-Leu-OH, reference compound]
rats
  Analgesia after injection into the brain ventricle: profound analgesia
Male Charles River rats; [1]
  Time after which the effect dissipates rapidly: 10 to 12 min
  Time to peak analgesic effect: 6 to 8 min
Male Charles River rats; Rat 1, 2 min
  Tail-flick latency: 8.00 s
Male Charles River rats; Rat 1, 4 min
  Tail-flick latency: 8.00 s
Male Charles River rats; Rat 1, 6 min
  Tail-flick latency: 8.00 s
Male Charles River rats; Rat 1, 8 min
  Tail-flick latency: 8.00 s
Male Charles River rats; Rat 1, 10 min
  Tail-flick latency: 6.15 s
Male Charles River rats; Rat 1, 12 min
  Tail-flick latency: 5.76 s
Male Charles River rats; Rat 1, 14 min
  Tail-flick latency: 2.69 s
Male Charles River rats; Rat 2, 2 min
  Tail-flick latency: 8.00 s
Male Charles River rats; Rat 2, 4 min
  Tail-flick latency: 8.00 s
Male Charles River rats; Rat 2, 6 min
  Tail-flick latency: 5.11 s
Male Charles River rats; Rat 2, 8 min
  Tail-flick latency: 4.24 s
Male Charles River rats; Rat 2, 10 min
  Tail-flick latency: 3.48 s
Male Charles River rats; Rat 2, 12 min
  Tail-flick latency: 4.15 s
Male Charles River rats; Rat 3, 2 min
  Tail-flick latency: 4.88 s
Male Charles River rats; Rat 3, 4 min
  Tail-flick latency: 8.00 s
Male Charles River rats; Rat 3, 6 min
  Tail-flick latency: 7.50 s
Male Charles River rats; Rat 3, 8 min
  Tail-flick latency: 8.00 s
Male Charles River rats; Rat 3, 10 min
  Tail-flick latency: 4.50 s
Male Charles River rats; Rat 3, 12 min
  Tail-flick latency: 3.49 s
Male Charles River rats; Rat 3, 14 min
  Tail-flick latency: 3.04 s
Male Charles River rats; Rat 4, 2 min
  Tail-flick latency: 6.47 s
Male Charles River rats; Rat 4, 4 min
  Tail-flick latency: 6.97 s
Male Charles River rats; Rat 4, 6 min
  Tail-flick latency: 6.62 s
Male Charles River rats; Rat 4, 8 min
  Tail-flick latency: 7.17 s
Male Charles River rats; Rat 4, 10 min
  Tail-flick latency: 6.81 s
Male Charles River rats; Rat 4, 12 min
  Tail-flick latency: 7.52 s
Male Charles River rats; Rat 4, 14 min
  Tail-flick latency: 3.06 s

## COc1ccc(C[C@H](N)C(=O)N[C@H]2[C@@H](O)[C@H](n3cnc4c(N(C)C)ncnc43)O[C@@H]2CO)cc1 [puromycin]
aminopeptidase
  Inhibition of "aminopeptidase"-catalyzed breakdown of enkephalins: effective inhibitors

## H-Tyr-Gly-Gly-Phe-Met-OH [methionine-enkephalin]
rats
  Analgesia after injection into the brain ventricle: profound analgesia
